# Patent US20050095240A1, “NaCT as a target for lifespan expansion and weight reduction” (Medical College of Georgia Research, priority 2002, published 2005)
# Legend:
# HepG2 cells = experiment: Incorporation of citrate and acetate into cellular lipids; assay type: cell-based, human; settings: 24 hours
# From the text: The cellular lipids were then extracted by n-hexane/isopropanol (3:2, v/v) as described by Schamagl et al. (Scharnagl et al., (2001) Biochem. Pharmacol. 62, 1545-1555).
# ceNaCT = biological target: T1, ceNaCT (Caenorhabditis elegans, UniProt P32739, I91S/L182M); experiment: Uptake via ceNaCT expressed in HRPE cells; settings: Li+ 2 mM, valproate 0.6 μM, carbamazepine 50 μM
# T1 sequence (P32739 1-551 I91S/L182M): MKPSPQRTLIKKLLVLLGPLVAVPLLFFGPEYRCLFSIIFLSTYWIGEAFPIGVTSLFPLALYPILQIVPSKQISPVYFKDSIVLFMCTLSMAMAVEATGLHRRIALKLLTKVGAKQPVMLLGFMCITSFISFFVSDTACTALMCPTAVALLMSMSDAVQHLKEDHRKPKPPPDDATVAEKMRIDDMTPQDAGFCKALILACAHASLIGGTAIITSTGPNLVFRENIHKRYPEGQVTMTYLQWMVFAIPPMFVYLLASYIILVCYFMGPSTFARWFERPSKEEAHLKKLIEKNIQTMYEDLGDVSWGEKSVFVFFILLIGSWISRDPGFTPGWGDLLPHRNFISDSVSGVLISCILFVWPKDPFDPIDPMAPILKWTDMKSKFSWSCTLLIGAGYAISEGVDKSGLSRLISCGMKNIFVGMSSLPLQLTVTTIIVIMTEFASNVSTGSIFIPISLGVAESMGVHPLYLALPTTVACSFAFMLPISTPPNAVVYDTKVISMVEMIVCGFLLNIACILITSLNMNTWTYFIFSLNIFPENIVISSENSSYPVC
# rat NaCT = biological target: T2, rat NaCT (Rattus norvegicus, UniProt Q8CJ44); experiment: Uptake via rat NaCT expressed in HRPE cells; assay type: cell-based
# T2 sequence (Q8CJ44 1-572): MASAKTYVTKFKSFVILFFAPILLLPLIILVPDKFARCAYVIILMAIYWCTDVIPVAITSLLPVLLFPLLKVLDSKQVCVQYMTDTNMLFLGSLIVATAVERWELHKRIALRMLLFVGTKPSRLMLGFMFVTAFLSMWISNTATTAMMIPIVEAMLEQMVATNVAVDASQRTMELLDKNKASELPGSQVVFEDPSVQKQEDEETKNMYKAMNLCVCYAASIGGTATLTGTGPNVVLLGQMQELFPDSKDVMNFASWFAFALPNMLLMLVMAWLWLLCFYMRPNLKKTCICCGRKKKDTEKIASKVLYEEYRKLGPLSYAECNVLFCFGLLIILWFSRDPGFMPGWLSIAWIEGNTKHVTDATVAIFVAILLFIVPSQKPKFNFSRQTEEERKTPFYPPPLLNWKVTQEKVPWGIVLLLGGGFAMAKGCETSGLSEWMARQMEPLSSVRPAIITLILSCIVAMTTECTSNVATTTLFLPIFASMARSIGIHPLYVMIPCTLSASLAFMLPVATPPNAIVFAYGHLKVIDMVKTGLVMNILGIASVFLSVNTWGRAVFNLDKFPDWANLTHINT
# [1] = biological target: Phe→Leu mutant of human NaCT (Homo sapiens, UniProt Q86YT5, F500L); experiment: Citrate uptake via Phe→Leu mutant of human NaCT in HRPE cells; assay type: cell-based; settings: citrate 20 μM; increasing Li+
# [2] = biological target: chimeric transporter (human NaCT 496-516 replaced with rat NaCT 500-520) (Homo sapiens, UniProt Q86YT5, F500L/T516A); experiment: Citrate uptake via human/rat chimeric NaCT in HRPE cells; assay type: cell-based; settings: Li+ 10 mM; citrate 20 μM
# NaCT in Huh-7 cells = biological target: T3, NaCT in Huh-7 cells (Homo sapiens, UniProt Q86YT5); experiment: Citrate uptake in Huh-7 cells (constitutively expressed NaCT); assay type: cell-based; settings: Li+ 2 mM
# T3 construct: the effect of Li^+ on constitutively expressed NaCT in human liver cells was studied; endogenous in cells; host or cells: Huh-7 (gift of Dr. Barrie P. Bode)
# Experimental: (§1) Uptake measurement in human liver cell lines. The human liver cell lines (HepG2 and Huh-7) were cultured to confluency in 24-well culture plates using appropriate culture medium. The HepG2 cell line was obtained from American Type Culture Collection (Manasses, Va.). The Huh-7 cell line (Bode et al., (2002) Am. J. Physiol. 283, G1062-G1073) was provided by Dr. Barrie P. Bode (St. Louis University, St. Louis, Mo.). Uptake measurements in monolayer cultures of these cells were measured as described above for the heterologously expressed NaCTs.
# mouse NaCT = biological target: T4, mouse NaCT (Mus musculus, UniProt Q67BT3); experiment: Transport via mouse NaCT expressed in HRPE cells; assay type: cell-based; settings: Li+ 2 mM, valproate 0.6 μM, carbamazepine 50 μM
# T4 sequence (Q67BT3 1-572): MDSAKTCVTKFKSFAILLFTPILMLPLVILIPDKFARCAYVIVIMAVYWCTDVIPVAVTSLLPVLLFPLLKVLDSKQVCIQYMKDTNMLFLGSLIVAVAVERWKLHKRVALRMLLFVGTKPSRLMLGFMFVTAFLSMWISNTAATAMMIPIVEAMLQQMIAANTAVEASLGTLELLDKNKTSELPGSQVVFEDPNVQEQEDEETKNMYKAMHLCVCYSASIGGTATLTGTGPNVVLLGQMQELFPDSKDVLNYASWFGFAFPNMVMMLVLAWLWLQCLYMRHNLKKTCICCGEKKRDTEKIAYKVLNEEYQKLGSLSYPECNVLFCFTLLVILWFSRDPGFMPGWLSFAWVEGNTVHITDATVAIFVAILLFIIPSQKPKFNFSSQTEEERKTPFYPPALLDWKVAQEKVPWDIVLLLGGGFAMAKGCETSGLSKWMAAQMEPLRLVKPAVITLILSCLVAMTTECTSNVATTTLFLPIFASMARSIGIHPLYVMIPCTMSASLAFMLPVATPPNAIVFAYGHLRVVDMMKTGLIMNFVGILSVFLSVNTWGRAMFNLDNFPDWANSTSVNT
# [3] = patients under treatment; cited from earlier work
# NaCT in HepG2 cells = biological target: T5, NaCT in HepG2 cells (Homo sapiens, UniProt Q86YT5); experiment: Citrate uptake in HepG2 cells (constitutively expressed NaCT); assay type: cell-based; settings: Li+ 2 mM, valproate 0.6 μM, carbamazepine 50 μM
# T5 construct: the effect of Li^+ on constitutively expressed NaCT in human liver cells was studied; host or cells: HepG2
# Experimental: as §1
# human NaCT = human NaCT (Homo sapiens, UniProt Q86YT5); experiment: Uptake via human NaCT expressed in HRPE cells; assay type: cell-based
# zebrafish NaCT = zebrafish NaCT (Danio rerio, UniProt A0A2R8QQN0, K78Q); experiment: Citrate uptake via zebrafish NaCT expressed in HRPE cells; assay type: cell-based
# [4] = Li+ 2 mM, valproate 0.6 μM, carbamazepine 50 μM
# Sequence of human NaCT (Q86YT5 whole entry): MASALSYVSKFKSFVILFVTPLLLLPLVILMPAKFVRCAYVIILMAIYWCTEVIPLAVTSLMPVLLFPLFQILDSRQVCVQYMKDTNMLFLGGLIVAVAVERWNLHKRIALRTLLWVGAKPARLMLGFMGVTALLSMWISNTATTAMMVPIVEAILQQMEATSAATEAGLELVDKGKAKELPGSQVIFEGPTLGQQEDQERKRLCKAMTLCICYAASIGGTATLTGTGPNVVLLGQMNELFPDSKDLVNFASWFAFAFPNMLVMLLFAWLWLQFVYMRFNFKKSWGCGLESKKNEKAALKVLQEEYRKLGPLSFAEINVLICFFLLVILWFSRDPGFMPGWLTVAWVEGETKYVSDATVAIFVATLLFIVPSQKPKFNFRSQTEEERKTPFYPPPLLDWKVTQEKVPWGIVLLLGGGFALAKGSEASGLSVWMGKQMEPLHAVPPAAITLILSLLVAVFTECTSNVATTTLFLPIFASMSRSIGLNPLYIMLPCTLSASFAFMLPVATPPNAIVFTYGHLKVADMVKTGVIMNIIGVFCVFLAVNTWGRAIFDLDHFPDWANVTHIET
# Sequence of zebrafish NaCT (A0A2R8QQN0 2-582 K78Q): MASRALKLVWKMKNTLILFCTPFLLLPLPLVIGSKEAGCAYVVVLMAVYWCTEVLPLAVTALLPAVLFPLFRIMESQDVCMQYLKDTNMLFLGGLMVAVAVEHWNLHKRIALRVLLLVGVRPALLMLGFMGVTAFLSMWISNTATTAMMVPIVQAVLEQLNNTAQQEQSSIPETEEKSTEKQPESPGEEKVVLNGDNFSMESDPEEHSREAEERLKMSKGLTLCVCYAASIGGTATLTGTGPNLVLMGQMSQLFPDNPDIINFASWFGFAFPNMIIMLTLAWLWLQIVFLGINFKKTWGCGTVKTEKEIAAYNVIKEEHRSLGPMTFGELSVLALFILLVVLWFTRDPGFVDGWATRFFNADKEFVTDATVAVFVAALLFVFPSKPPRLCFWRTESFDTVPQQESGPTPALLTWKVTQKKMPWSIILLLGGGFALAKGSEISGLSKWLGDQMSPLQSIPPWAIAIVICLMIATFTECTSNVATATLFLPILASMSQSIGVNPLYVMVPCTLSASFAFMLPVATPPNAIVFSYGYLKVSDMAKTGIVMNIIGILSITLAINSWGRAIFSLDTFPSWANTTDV
# T3 sequence (Q86YT5 whole entry): as the sequence (Q86YT5 whole entry) above
# T5 sequence (Q86YT5 whole entry): as above
# Sequence of chimeric transporter (human NaCT 496-516 replaced with rat NaCT 500-520) (Q86YT5 whole entry F500L/T516A): as the sequence (Q86YT5 whole entry) above, with F500L, T516A counted along it
# Sequence of Phe→Leu mutant of human NaCT (Q86YT5 whole entry F500L): as the sequence (Q86YT5 whole entry) above, with F500L counted along it
structure (smiles),measurement,setting,value
"[Li+] [Li^+, lithium]",Stimulation of incorporation of [^14C]citrate into lipid fraction,HepG2 cells; Li+ 2 mM,2.6±0.1 fold
same,Effect on incorporation of [^14C]acetate into lipids,HepG2 cells; Li+ 2 or 10 mM,did not have any effect
same,"Citrate uptake, ceNaCT",ceNaCT,43.6 ± 0.8 pmol/10^6 cells/min
same,"Citrate uptake, ceNaCT, percent of corresponding control",ceNaCT,100%
same,"Citrate uptake, rNaCT",rat NaCT; [4],92.3 ± 8.4 pmol/10^6 cells/min
same,"Citrate uptake, rNaCT, percent of corresponding control",rat NaCT; [4],62%
same,IC50,"rat NaCT; read-out: IC50 for inhibition of citrate uptake via rat NaCT, citrate 20 μM",2100 ± 800 µM
same,Effect of Li+ on transport function of the mutant,[1],not affected
same,Effect of Li+ on activity of the chimeric transporter,[2],not affected
same,"Citrate uptake, Huh-7 cells",NaCT in Huh-7 cells,20.0 ± 0.5 pmol/min/mg protein
same,"Citrate uptake, Huh-7 cells, percent of corresponding control",NaCT in Huh-7 cells,196%
same,"Citrate uptake, mNaCT",mouse NaCT,29.4 ± 1.7 pmol/10^6 cells/min
same,"Citrate uptake, mNaCT, percent of corresponding control",mouse NaCT,69%
same,Plasma concentrations / therapeutic plasma levels in humans,[3],800 to 2000 µM
same,"Citrate uptake, HepG2 cells",NaCT in HepG2 cells,21.2 ± 0.6 pmol/min/mg protein
same,"Citrate uptake, HepG2 cells, percent of corresponding control",NaCT in HepG2 cells,222%
same,Increase of affinity for citrate,human NaCT; 10 mM Li+,approximately 7 fold
same,Stimulation of human NaCT by Li+,"human NaCT; 10 mM Li+, 60 mM Na+",7 fold
same,Stimulation of human NaCT by Li+,"human NaCT; 10 mM Li+, 140 mM Na+",3 fold
same,"Citrate uptake, hNaCT",human NaCT; [4],105.2 ± 11.6 pmol/10^6 cells/min
same,"Citrate uptake, hNaCT, percent of corresponding control",human NaCT; [4],203%
same,Stimulation of human NaCT activity,human NaCT; Li+ 2.5 mM,2.4 fold
same,EC50,"human NaCT; read-out: Concentration of Li+ needed for half-maximal stimulation of citrate uptake, citrate 20 μM",2100 ± 700 µM
same,"Citrate uptake, zfNaCT",zebrafish NaCT,298.0 ± 12.6 (61) pmol/10^6 cells/min
same,"Citrate uptake, zfNaCT, percent of corresponding control",zebrafish NaCT,298.0 ± 12.6 (61) percent
